Assay results: article PMC4703110 (Journal of chemical information and modeling, 2015)

Target: human μ-opioid receptor (Homo sapiens, UniProt P35372)
Type: cell-based
Conditions: read-out: EC50, μM (PAM mode)

Chain of human μ-opioid receptor (P35372 whole entry): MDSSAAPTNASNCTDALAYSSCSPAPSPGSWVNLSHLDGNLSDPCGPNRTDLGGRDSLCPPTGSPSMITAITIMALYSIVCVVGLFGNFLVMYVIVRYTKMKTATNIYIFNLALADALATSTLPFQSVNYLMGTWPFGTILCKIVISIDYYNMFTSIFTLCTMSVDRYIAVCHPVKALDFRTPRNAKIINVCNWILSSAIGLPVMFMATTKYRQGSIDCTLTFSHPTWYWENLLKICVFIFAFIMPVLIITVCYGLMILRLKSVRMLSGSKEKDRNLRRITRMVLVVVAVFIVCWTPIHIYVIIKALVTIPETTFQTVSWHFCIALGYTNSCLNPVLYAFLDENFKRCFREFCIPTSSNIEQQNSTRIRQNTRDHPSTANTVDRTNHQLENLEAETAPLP

## COc1ccc(C2SCCN2S(=O)(=O)c2ccc(Cl)cc2)cc1Br (stereo not shown) [BMS-986122]
  EC50: 16.2 µM
